Reference: patent US10421761B2, “Compounds for kinase modulation, and indications therefor” (Plexxikon Inc., priority 2013, dated 2019)

Tested on: B9 cells
Conditions: Repl. 2; B9 cells

## CCCS(=O)(=O)Nc1ccc(F)c(C(=O)c2c[nH]c3ncc(-c4ccc(Cl)cc4)cc23)c1F [vemurafenib]
  probe 1430623_s_at response, Obfc2a (oligonucleotide/oligosaccharide-binding fold containing 2A): 1.88
  probe 1430700_a_at response, Pla2g7 (phospholipase A2, group VII (platelet-activating factor acetylhydrolase, plasma)): 2.18
  probe 1431416_a_at response, Jam2 (junction adhesion molecule 2): 1.93
  probe 1431422_a_at response, Dusp14 (dual specificity phosphatase 14): 1.93
  probe 1431611_a_at response, Cadm1 (cell adhesion molecule 1): 2.31
  probe 1431688_at response, LOC73899 (hypothetical LOC73899): 2.41
  probe 1431691_a_at response, Rab31 (RAB31, member RAS oncogene family): 2.04
  probe 1433909_at response, Syt17 (synaptotagmin XVII): 2.17
  probe 1434059_at response, B230312A22Rik (RIKEN cDNA B230312A22 gene): 2.10
  probe 1434092_at response, Atg9b (ATG9 autophagy related 9 homolog B (S. cerevisiae)): 1.89
  probe 1434109_at response, Sh3bgrl2 (SH3 domain binding glutamic acid-rich protein like 2): 2.33
  probe 1434252_at response, Tmcc3 (transmembrane and coiled coil domains 3): 1.95
  probe 1434601_at response, Amigo2 (adhesion molecule with Ig like domain 2): 1.89
  probe 1434957_at response, Cdon (cell adhesion molecule-related/down-regulated by oncogenes): 0.46
  probe 1435066_at response, Pitpnc1 (phosphatidylinositol transfer protein, cytoplasmic 1): 2.32
  probe 1435176_a_at response, Id2 (inhibitor of DNA binding 2): 0.46
  probe 1435330_at response, Pyhin1 (pyrin and HIN domain family, member 1): 2.38
  probe 1435331_at response, Pyhin1 (pyrin and HIN domain family, member 1): 3.71
  probe 1435460_at response, Prkg2 (protein kinase, cGMP-dependent, type II): 1.96
  probe 1435695_a_at response, Ggct (gamma-glutamyl cyclotransferase): 2.19
  probe 1436100_at response, Sh2d5 (SH2 domain containing 5): 2.35
  probe 1436329_at response, Egr3 (early growth response 3): 2.77
  probe 1436584_at response, Spry2 (sprouty homolog 2 (Drosophila)): 3.54
  probe 1436659_at response, Dclk1 (doublecortin-like kinase 1): 2.37
  probe 1436917_s_at response, Gpsm1 (G-protein signalling modulator 1 (AGS3-like, C. elegans)): 1.89
  probe 1436944_x_at response, Pisd /// Pisd-ps1 ///Pisd-ps3 (phosphatidylserine decarboxylase /// phosphatidylserine decarboxylase, pseudogene 1 /// phosphatidylserine decarboxylase, pseudogene 3): 0.48
  probe 1437092_at response, Clip4 (CAP-GLY domain containing linker protein family, member 4): 2.13
  probe 1437100_x_at response, Pim3 (proviral integration site 3): 2.05
  probe 1437199_at response: 4.31
  probe 1437271_at response, Clcf1 (cardiotrophin-like cytokine factor 1): 1.96
  probe 1437486_at response, Gprc5a (G protein-coupled receptor, family C, group 5, member A): 2.08
  probe 1437982_x_at response, Cox15 (COX15 homolog, cytochrome c oxidase assembly protein (yeast)): 0.45
  probe 1438038_at response, 4930402H24Rik (RIKEN cDNA 4930402H24 gene): 1.93
  probe 1438664_at response, Prkar2b (protein kinase, cAMP dependent regulatory, type II beta): 0.49
  probe 1438699_at response, Srd5a1 (steroid 5 alpha-reductase 1): 1.87
  probe 1439016_x_at response, Sprr2a (small proline-rich protein 2A): 0.42
  probe 1439109_at response, Ccdc68 (coiled-coil domain containing 68): 0.50
  probe 1439434_x_at response, Sh2d5 (SH2 domain containing 5): 1.91
  probe 1439797_at response, Ppard (peroxisome proliferator activator receptor delta): 2.32
  probe 1439878_at response, Ivl (involucrin): 2.90
  probe 1440169_x_at response, Ifnar2 (interferon (alpha and beta) receptor 2): 0.53
  probe 1440559_at response, Hmga2-ps1 (high mobility group AT-hook 2, pseudogene 1): 2.95
  probe 1441315_s_at response, Slc19a2 (solute carrier family 19 (thiamine transporter), member 2): 2.18
  probe 1441917_s_at response, Tmem40 (transmembrane protein 40): 2.11
  probe 1442350_at response: 2.13
  probe 1442363_at response, 1110012J17Rik (RIKEN cDNA 1110012J17 gene): 1.96
  probe 1443536_at response, Slc7a11 (solute carrier family 7 (cationic amino acid transporter, y+ system), member 11): 0.40
  probe 1445758_at response: 0.52
  probe 1446791_at response, Pi15 (peptidase inhibitor 15): 0.48
  probe 1447661_at response: 0.43
  probe 1447845_s_at response, Vnn1 (vanin 1): 0.46
  probe 1448364_at response, Ccng2 (cyclin G2): 2.01
  probe 1448532_at response, Prl8a9 (prolactin family8, subfamily a, member 9): 2.67
  probe 1448562_at response, Upp1 (uridine phosphorylase 1): 2.99
  probe 1448613_at response, Ecm1 (extracellular matrix protein 1): 1.89
  probe 1448617_at response, Cd53 (CD53 antigen): 1.99
  probe 1448810_at response, Gne (glucosamine): 2.16
  probe 1448855_at response, Rassf1 (Ras association (RalGDS/AF-6) domain family member 1): 2.05
  probe 1448894_at response, Akr1b8 (aldo-keto reductase family 1, member B8): 1.99
  probe 1448978_at response, Ngef (neuronal guanine nucleotide exchange factor): 3.24
  probe 1449038_at response, Hsd11b1 (hydroxysteroid 11-beta dehydrogenase 1): 2.51
  probe 1449125_at response, Tnfaip8l1 (tumor necrosis factor, alpha-induced protein 8-like 1): 2.10
  probe 1449133_at response, Sprr1a (small proline-rich protein 1A): 2.78
  probe 1449268_at response, Gfpt1 (glutamine fructose-6-phosphate transaminase 1): 2.36
  probe 1449297_at response, Casp12 (caspase 12): 0.47
  probe 1449334_at response, Timp3 (tissue inhibitor of metalloproteinase 3): 0.42
  probe 1449367_at response, Trex2 (three prime repair exonuclease 2): 4.68
  probe 1449408_at response, Jam2 (junction adhesion molecule 2): 2.08
  probe 1449545_at response, Fgf18 (fibroblast growth factor 18): 3.38
  probe 1449965_at response, Mcpt8 (mast cell protease 8): 2.61
  probe 1450241_a_at response, Evi2a (ecotropic viral integration site 2a): 4.27
  probe 1450262_at response, Clcf1 (cardiotrophin-like cytokine factor 1): 2.12
  probe 1450276_a_at response, Scin (scinderin): 2.63
  probe 1450376_at response, Mxi1 (Max interacting protein 1): 2.00
  probe 1450430_at response, Mrc1 (mannose receptor, C type 1): 2.97
  probe 1450501_at response, Itga2 (integrin alpha 2): 2.48
  probe 1450791_at response, Nppb (natriuretic peptide precursor type B): 4.39
  probe 1450976_at response, Ndrg1 (N-myc downstream regulated gene 1): 2.47
  probe 1451006_at response, Xdh (xanthine dehydrogenase): 0.39
  probe 1451308_at response, Elovl4 (elongation of very long chain fatty acids (FEN1/Elo2, SUR4/Elo3, yeast)-like 4): 2.21
  probe 1451446_at response, Antxr1 (anthrax toxin receptor 1): 0.43
  probe 1451501_a_at response, Ghr (growth hormone receptor): 2.25
  probe 1451529_at response, Sgtb (small glutamine-rich tetratricopeptide repeat (TPR)-containing, beta): 2.47
  probe 1451798_at response, Il1rn (interleukin 1 receptor antagonist): 2.76
  probe 1452058_a_at response, Rnfl1 (ring finger protein 11): 2.02
  probe 1452087_at response, Epsti1 (epithelial stromal interaction 1 (breast)): 2.32
  probe 1452203_at response, Obfc2a (oligonucleotide/oligosaccharide-binding fold containing 2A): 1.90
  probe 1452352_at response, Ctla2b (cytotoxic T lymphocyte-associated protein 2 beta): 2.30
  probe 1452521_a_at response, Plaur (plasminogen activator, urokinase receptor): 2.09
  probe 1453055_at response, Sema6d (sema domain, transmembrane domain (TM), and cytoplasmic domain, (semaphorin) 6D): 4.08
  probe 1453278_a_at response, Clip4 (CAP-GLY domain containing linker protein family, member 4): 1.99
  probe 1453345_at response, Nipal1 (NIPA-like domain containing 1): 3.92
  probe 1454048_a_at response, 4931408A02Rik /// LOC630876 (RIKEN cDNA 4931408A02 gene /// similar to Protein C21orf63 homolog precursor): 0.46
  probe 1454254_s_at response, 1600029D21Rik (RIKEN cDNA 1600029D21 gene): 2.18
  probe 1454649_at response, Srd5a1 (steroid 5 alpha-reductase 1): 2.08
  probe 1454699_at response, LOC100047324 /// Sesn1 (similar to Sesn1 protein /// sestrin 1): 0.37
  probe 1454710_at response, Spink2 (serine peptidase inhibitor, Kazal type 2): 2.03
  probe 1454780_at response, Galntl4 (UDP-N-acetyl-alpha-D-galactosamine:polypeptide N-acetylgalactosaminyltransferase-like 4): 0.44
  probe 1454877_at response, Sertad4 (SERTA domain containing 4): 0.42
  probe 1455104_at response, Mxd1 (MAX dimerization protein 1): 2.85
  probe 1455241_at response, BC037703 (cDNA sequence BC037703): 0.50
  probe 1455299_at response, Vgll3 (vestigial like 3 (Drosophila)): 0.44
  probe 1455981_at response, Gm11263 /// Gm12242 /// Gm13654 /// Gm14138 /// Gm16406 /// Gm4796 /// Gm6476 /// Gm9143 /// LOC100043734 /// LOC236932 /// LOC623245 /// LOC639593 /// Rps6: 0.46
  probe 1456150_at response, Jhdm1d (jumonji C domain-containing histone demethylase 1 homolog D (S. cerevisiae)): 1.99
  probe 1456174_x_at response, Ndrg1 (N-myc downstream regulated gene 1): 2.00
  probe 1456248_at response, Lce3f /// LOC630971 (late cornified envelope 3F /// hypothetical protein LOC630971): 2.45
  probe 1456284_at response, Tmem171 (transmembrane protein 171): 1.95
  probe 1456321_at response, Nipal1 (NIPA-like domain containing 1): 2.99
  probe 1456725_x_at response, Ezr (ezrin): 0.49
  probe 1456874_at response, Flrt2 (fibronectin leucine rich transmembrane protein 2): 0.54
  probe 1457042_at response, AI256396 (EST AI256396): 0.52
  probe 1457568_at response, Hnrnpd (heterogeneous nuclear ribonucleoprotein D): 0.50
  probe 1457666_s_at response, Ifi202b (interferon activated gene 202B): 3.89
  probe 1460220_a_at response, Csf1 (colony stimulating factor 1 (macrophage)): 0.38
  probe 1460302_at response, Thbs1 (thrombospondin 1): 0.50
  probe 1460472_at response, Cdk3 (cyclin-dependent kinase 3): 1.99
  probe 1460521_a_at response, Obfc2a (oligonucleotide/oligosaccharide-binding fold containing 2A): 2.32
  probe 1460695_a_at response, 2010111I01Rik (RIKEN cDNA 2010111I01 gene): 0.48
